Measurements from patent US10336724B2, “D-amino acid oxidase inhibitors and therapeutic uses thereof” (SyneuRx International (Taiwan) Corp., priority 2017, dated 2019).
“Also recorded” adds a separate entry of the source.

How the values were obtained:
[1] = molecular target: hDAAO (human DAAO) (Homo sapiens (Human), UniProt P14920); experiment: hDAAO (human DAAO) activity, D-serine substrate, Amplex Red fluorescence; type: biochemical
Experimental: The hDAAO (human DAAO) activity was measured by using D-serine as a substrate to produce H2O2. The produced H2O2 would be oxidized by peroxidase, and the produced free radicals would further react with Amplex Red reagent to emit fluorescence. The intensity of fluorescence at 590 nm would be measured to represent the activity of hDAAO. All compounds were dissolved in DMSO. Each compound was diluted with DMSO in 3-fold serial dilution to create a 9-point dose response curve. Each sample was added in triplicate, 1 μL/well, into 96-well black plates. Positive control wells were added with 1 μL of DMSO. Then 49 μL of assay buffer (100 mM Tris-HCl, pH 8.5) containing 1.2 ng/mL hDAAO, 900 nM FAD, 0.2 units/mL HRP, and 100 μM Amplex Red was added to each well of the plate using a multichannel pipette. Next, 50 μL of 100 mM D-Serine in assay buffer was added. The reaction plates were then incubated in the dark at room temperature. The fluorescence readout was detected at 0 and 20 minute by Molecular Device Gemini EM fluorescence reader using the following settings: excitation filter 530 nm, and emission filter 590 nm. The percentage of inhibition values for each well was calculated with the following equation: The percentage of inhibition=(fluorescencesample, 20 min−fluorescencesample, 0 min)/(fluorescenceDMSO, 20 min−fluorescenceDMSO, 0 min)×100%
The nonlinear curve fitting model in GraphPad Prism 5 was used to calculate IC50 value for each compound.

[2] = system: mice; experiment: Spontaneous locomotion in open field; type: in vivo; conditions: oral, 446 and 892 mg/kg, 120 minutes observation
Experimental: (§1) The mice were group housed (3-5 mice per cage) with food and water available ad libitum in polysulfone ventilated cages (Alternative Design, AR, USA) in the animal rooms of SyneuRx International (Taiwan) Corp. The colony was maintained on a 12/12-hr light/dark cycle at the temperature of 22±2° C. and all behavioral studies were performed during the dark cycle. All animals used in this study were adult mice (at least 2.5 months of age). All animal procedures were performed according to the protocols approved by Institutional Animal Care and Use Committee (IACUC).
The compound of Example 1 was placed into 100% PEG400, and was sonic vibrated until solution became clear. […]
Mice that received oral administration of either vehicle or low/high dose of the compound of Example 1 was immediately subjected to open field test and the index of spontaneous locomotion was expressed as total travel distance measured within the defined time frame.
(§2) The mice were placed in a Plexiglas cage (37.5 cm×21.5 cm×18 cm) under 50-65 lux light intensity, the spontaneous locomotion was measured for 120 minutes using the EthoVision video tracking system (Noldus Information Technology, the Netherlands). The travel distance of each mouse was measured as an index of spontaneous locomotion.

[3] = system: MK801-treated mice; experiment: Open field task, MK801-induced hyper-locomotion; type: in vivo; conditions: Example 1 446 or 892 mg/kg orally 20 min prior to MK801 0.1 mg/kg i.p.; 120 minutes testing period
Experimental: as §2
as §1, with “rooms of the SyneuRx International” for “rooms of SyneuRx International”, “performed during dark cycle.” for “performed during the dark cycle.”, “approved by the Institutional Animal” for “approved by Institutional Animal”, “Committee (IACUC). […]” for “Committee (IACUC).”
(§3) All mice in the experiments were tested by open field task and pre-pulse inhibition with at least 1-week interval between two tasks. […] The percentage of pre-pulse inhibition was calculated by the following formula: % PPI=100×[(PA score)−(pp-P score)]/(PA score), where the PA score was the average of the PA value in the middle blocks. […]

[4] = system: MK801-treated mice; experiment: Pre-pulse inhibition (PPI) test, MK801-induced deficit of sensorimotor gating; type: in vivo; conditions: Example 1 446 or 892 mg/kg orally 20 min prior to MK801 0.2 mg/kg i.p.; each pre-pulse intensity
Experimental: The mice were group housed (3-5 mice per cage) with food and water available ad libitum in polysulfone ventilated cages (Alternative Design, AR, USA) in the animal rooms of the SyneuRx International (Taiwan) Corp. The colony was maintained on a 12/12-hr light/dark cycle at the temperature of 22±2° C. and all behavioral studies were performed during dark cycle. All animals used in this study were adult mice (at least 2.5 months of age). All animal procedures were performed according to the protocols approved by the Institutional Animal Care and Use Committee (IACUC). The mice were randomly assigned into four groups, Group 1: vehicle control, Group 2: MK801, Group 3: Example 1 at 446 mg/kg+MK801, Group 4: Example 1 at 892 mg/kg+MK801. […]
as §3

Chain of hDAAO (human DAAO) (P14920 whole entry): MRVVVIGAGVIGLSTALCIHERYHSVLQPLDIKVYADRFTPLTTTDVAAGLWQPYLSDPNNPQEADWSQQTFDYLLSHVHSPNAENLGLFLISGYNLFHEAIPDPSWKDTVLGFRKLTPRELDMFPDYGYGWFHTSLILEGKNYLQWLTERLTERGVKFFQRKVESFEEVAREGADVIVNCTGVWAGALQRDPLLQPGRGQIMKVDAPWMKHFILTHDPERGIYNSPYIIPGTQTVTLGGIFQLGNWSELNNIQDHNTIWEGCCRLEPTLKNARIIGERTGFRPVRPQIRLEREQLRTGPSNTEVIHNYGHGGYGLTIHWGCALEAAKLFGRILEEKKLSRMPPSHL

| Structure (SMILES) | IC50 [1] | spontaneous locomotion (total travel distance) versus vehicle [2] | locomotion activity in open field task compared to control group [3] | percentage of pre-pulse inhibition compared to control group [4] |
| --- | --- | --- | --- | --- |
| O=C(Oc1coc(CO)cc1=O)c1ccc[nH]1 [Compound 1, 6-(hydroxymethyl)-4-oxo-4H-pyran-3-yl 1H-pyrrole-2-carboxylate] | 100 to 500 µM | no significant difference between groups | equal level of locomotion activity as mice in the control group; also recorded: reversed/protected MK801-induced hyper-locomotion activity | the same level of pre-pulse inhibition percentage; also recorded: rescued/protected the MK801-induced PPI deficits |
| C[C@]12N[C@H](Cc3ccccc31)c1ccccc12 [MK801, reference compound] | – | – | displayed hyper-locomotion | lower percentage of pre-pulse inhibition |
